According to patent US6011037A, “Thiazole derivatives with phosphodiesterase-inhibiting action” (Byk Gulden Lomberg Chemische Fabrik GmbH, priority 1996, dated 2000):
Where a name gives a salt, the structure may show the parent alone.

Tested on: PDE IV
Experiment: Inhibition of the PDE IV activity (method of Bauer and Schwabe, adapted to microtiter plates)
Assay type: biochemical

| SMILES | -log IC50 |
| --- | --- |
| COc1ccc(-c2nc(-c3cccnc3)cs2)c2c1OC1(CCCC1)C2 [Compound 1, 3-[2-(2,3-Dihydro-7-methoxybenzofuran-2-spiro-1'-cyclopentan-4-yl)thiazol-4-yl]pyridine] | 7.75 |
| COc1ccc(-c2nc(-c3ccncc3)cs2)c2c1OC1(CCCC1)C2 [Compound 2, 4-[2-(2,3-Dihydro-7-methoxybenzofuran-2-spiro-1'-cyclopentan-4-yl)thiazol-4-yl]pyridinehydrobromide] | 7.09 |
